{"source": "patent US20100068545A1", "about": "“Compositions and methods for wood preservation” (priority 2005, published 2010)", "key": {"brown rots or white rots": {"tested_on": "brown rots or white rots", "experiment": "Accelerated decay testing in the lab", "details": "pyrethroid insecticide alone", "excerpt": "Provided herein is an organic composition and method for use thereof in treatment of cellulosic material, more particularly wood. The composition comprises an azole or quaternary ammonium fungicide compound, and a pyrethroid insecticide. The composition imparts to the treated wood resistance to both fungi and insects. […] This has been confirmed by accelerated decay testing in the lab."}, "decay fungi": {"tested_on": "decay fungi", "experiment": "AWPA E7-01 field stake test, decay ratings, Gainesville, Florida", "type": "in vivo", "parameters": "scale not given here", "method": "(§1) Preservative treating solutions were prepared by the mixing the concentrates in Example 1 with ethanol. The treated stakes were installed in Gainesville, Fla. for field performance evaluation following the procedure described in American Wood Preservers' Association (AWPA) Standard E7-01: “Standard Method of Evaluating Wood Preservatives by Field Tests with Stakes”.\n(§2) Preservative treating solutions were prepared by the mixing the concentrates in Example 1 with toluene. The treated stakes were installed in Gainesville, Fla. for field performance evaluation following the procedure described in American Wood Preservers' Association (AWPA) Standard E7-01: “Standard Method of Evaluating Wood Preservatives by Field Tests with Stakes”.\nPreservative treating solutions were prepared by the mixing the concentrates in Example 2 and 13. The treated stakes were installed in Gainesville, Fla. for field performance evaluation following the procedure described in American Wood Preservers' Association (AWPA) Standard E7-01: “Standard Method of Evaluating Wood Preservatives by Field Tests with Stakes”. […]"}, "termites": {"tested_on": "termites", "experiment": "AWPA E7-01 field stake test, termite ratings, Gainesville, Florida", "type": "in vivo", "parameters": "scale not given here", "method": "as §1, §2\nPreservative treating solutions were prepared by the mixing the concentrates in Example 2 and 13. The treated stakes were installed in Gainesville, Fla. for field performance evaluation following the procedure described in American Wood Preservers' Association (AWPA) Standard E7-01: “Standard Method of Evaluating Wood Preservatives by Field Tests with Stakes”.\nPreservative treating solutions were prepared by the mixing the concentrates in Example 1 with white spirits. The treated stakes were installed in Gainesville, Fla. for field performance evaluation following the procedure described in American Wood Preservers' Association (AWPA) Standard E7-01: “Standard Method of Evaluating Wood Preservatives by Field Tests with Stakes”."}, "[1]": {"details": "12 months, retention 0.32 kg/m^3, Ex. 14, ethanol solution"}, "[2]": {"details": "12 months, retention 0.32 kg/m^3, Ex. 15, toluene solution"}, "[3]": {"details": "12 months, retention 0.32 kg/m^3, Ex. 16, concentrates of Ex. 2 and 13"}, "[4]": {"details": "12 months, retention 0.48 kg/m^3, Ex. 14, ethanol solution"}, "[5]": {"details": "12 months, retention 0.48 kg/m^3, Ex. 15, toluene solution"}, "[6]": {"details": "12 months, retention 0.48 kg/m^3, Ex. 16, concentrates of Ex. 2 and 13"}, "[7]": {"details": "12 months, retention 0.64 kg/m^3, Ex. 14, ethanol solution"}, "[8]": {"details": "12 months, retention 0.64 kg/m^3, Ex. 15, toluene solution"}, "[9]": {"details": "12 months, retention 0.64 kg/m^3, Ex. 16, concentrates of Ex. 2 and 13"}, "[10]": {"details": "24 months, retention 0.32 kg/m^3, Ex. 14, ethanol solution"}, "[11]": {"details": "24 months, retention 0.32 kg/m^3, Ex. 15, toluene solution"}, "[12]": {"details": "24 months, retention 0.32 kg/m^3, Ex. 16, concentrates of Ex. 2 and 13"}, "[13]": {"details": "24 months, retention 0.48 kg/m^3, Ex. 14, ethanol solution"}, "[14]": {"details": "24 months, retention 0.48 kg/m^3, Ex. 15, toluene solution"}, "[15]": {"details": "24 months, retention 0.48 kg/m^3, Ex. 16, concentrates of Ex. 2 and 13"}, "[16]": {"details": "24 months, retention 0.64 kg/m^3, Ex. 14, ethanol solution"}, "[17]": {"details": "24 months, retention 0.64 kg/m^3, Ex. 15, toluene solution"}, "[18]": {"details": "24 months, retention 0.64 kg/m^3, Ex. 16, concentrates of Ex. 2 and 13"}, "[19]": {"details": "36 months, retention 0.32 kg/m^3, Ex. 14, ethanol solution"}, "[20]": {"details": "36 months, retention 0.32 kg/m^3, Ex. 15, toluene solution"}, "[21]": {"details": "36 months, retention 0.32 kg/m^3, Ex. 16, concentrates of Ex. 2 and 13"}, "[22]": {"details": "36 months, retention 0.48 kg/m^3, Ex. 14, ethanol solution"}, "[23]": {"details": "36 months, retention 0.48 kg/m^3, Ex. 15, toluene solution"}, "[24]": {"details": "36 months, retention 0.48 kg/m^3, Ex. 16, concentrates of Ex. 2 and 13"}, "[25]": {"details": "36 months, retention 0.64 kg/m^3, Ex. 14, ethanol solution"}, "[26]": {"details": "36 months, retention 0.64 kg/m^3, Ex. 15, toluene solution"}, "[27]": {"details": "36 months, retention 0.64 kg/m^3, Ex. 16, concentrates of Ex. 2 and 13"}, "[28]": {"details": "48 months, retention 0.32 kg/m^3, Ex. 14, ethanol solution"}, "[29]": {"details": "48 months, retention 0.32 kg/m^3, Ex. 15, toluene solution"}, "[30]": {"details": "48 months, retention 0.32 kg/m^3, Ex. 16, concentrates of Ex. 2 and 13"}, "[31]": {"details": "48 months, retention 0.48 kg/m^3, Ex. 14, ethanol solution"}, "[32]": {"details": "48 months, retention 0.48 kg/m^3, Ex. 15, toluene solution"}, "[33]": {"details": "48 months, retention 0.48 kg/m^3, Ex. 16, concentrates of Ex. 2 and 13"}, "[34]": {"details": "48 months, retention 0.64 kg/m^3, Ex. 14, ethanol solution"}, "[35]": {"details": "48 months, retention 0.64 kg/m^3, Ex. 15, toluene solution"}, "[36]": {"details": "48 months, retention 0.64 kg/m^3, Ex. 16, concentrates of Ex. 2 and 13"}}, "data": [{"smiles": "CC1(C)C(C=C(Cl)Cl)C1C(=O)OC(C#N)c1cccc(Oc2ccccc2)c1", "note": "(stereo not drawn) [cypermethrin]", "values": [{"measurement": "Fungicidal activity against brown rots or white rots", "setting": "brown rots or white rots", "value": "generally do not have fungicidal activity"}]}, {"smiles": "Cc1c(COC(=O)[C@@H]2[C@H](/C=C(\\Cl)C(F)(F)F)C2(C)C)cccc1-c1ccccc1", "note": "(racemic) [bifenthrin]", "values": [{"measurement": "Fungicidal activity against brown rots or white rots", "setting": "brown rots or white rots", "value": "generally do not have fungicidal activity"}]}, {"smiles": "CC1(C)C(C=C(Cl)Cl)C1C(=O)OCc1cccc(Oc2ccccc2)c1", "note": "(stereo not drawn) [permethrin]", "values": [{"measurement": "Fungicidal activity against brown rots or white rots", "setting": "brown rots or white rots", "value": "generally do not have fungicidal activity"}]}, {"smiles": "CC(C)(C)C(O)(CCc1ccc(Cl)cc1)Cn1cncn1", "note": "(racemic) [Tebuconazole, (RS)-1-p-chlorophenyl-4,4-dimethyl-3-(1H-1,2,4-triazol-1-ylmethyl)pentan-3-ol]", "values": [{"measurement": "Average Decay Rating", "setting": "decay fungi; [1]", "value": 8.2}, {"measurement": "Average Decay Rating", "setting": "decay fungi; [2]", "value": 8.2}, {"measurement": "Average Decay Rating", "setting": "decay fungi; [3]", "value": 8.2}, {"measurement": "Average Decay Rating", "setting": "decay fungi; [4]", "value": 5.8}, {"measurement": "Average Decay Rating", "setting": "decay fungi; [5]", "value": 5.8}, {"measurement": "Average Decay Rating", "setting": "decay fungi; [6]", "value": 5.8}, {"measurement": "Average Decay Rating", "setting": "decay fungi; [7]", "value": 8.7}, {"measurement": "Average Decay Rating", "setting": "decay fungi; [8]", "value": 8.7}, {"measurement": "Average Decay Rating", "setting": "decay fungi; [9]", "value": 8.7}, {"measurement": "Average Decay Rating", "setting": "decay fungi; [10]", "value": 2.6}, {"measurement": "Average Decay Rating", "setting": "decay fungi; [11]", "value": 2.6}, {"measurement": "Average Decay Rating", "setting": "decay fungi; [12]", "value": 2.6}, {"measurement": "Average Decay Rating", "setting": "decay fungi; [13]", "value": 0.8}, {"measurement": "Average Decay Rating", "setting": "decay fungi; [14]", "value": 0.8}, {"measurement": "Average Decay Rating", "setting": "decay fungi; [15]", "value": 0.8}, {"measurement": "Average Decay Rating", "setting": "decay fungi; [16]", "value": 1.2}, {"measurement": "Average Decay Rating", "setting": "decay fungi; [17]", "value": 1.2}, {"measurement": "Average Decay Rating", "setting": "decay fungi; [18]", "value": 1.2}, {"measurement": "Average Decay Rating", "setting": "decay fungi; [19]", "value": 0.0}, {"measurement": "Average Decay Rating", "setting": "decay fungi; [20]", "value": 0.0}, {"measurement": "Average Decay Rating", "setting": "decay fungi; [21]", "value": 0.0}, {"measurement": "Average Decay Rating", "setting": "decay fungi; [22]", "value": 0.0}, {"measurement": "Average Decay Rating", "setting": "decay fungi; [23]", "value": 0.0}, {"measurement": "Average Decay Rating", "setting": "decay fungi; [24]", "value": 0.0}, {"measurement": "Average Decay Rating", "setting": "decay fungi; [25]", "value": 0.0}, {"measurement": "Average Decay Rating", "setting": "decay fungi; [26]", "value": 0.0}, {"measurement": "Average Decay Rating", "setting": "decay fungi; [27]", "value": 0.0}, {"measurement": "Average Decay Rating", "setting": "decay fungi; [28]", "value": 0.0}, {"measurement": "Average Decay Rating", "setting": "decay fungi; [29]", "value": 0.0}, {"measurement": "Average Decay Rating", "setting": "decay fungi; [30]", "value": 0.0}, {"measurement": "Average Decay Rating", "setting": "decay fungi; [31]", "value": 0.0}, {"measurement": "Average Decay Rating", "setting": "decay fungi; [32]", "value": 0.0}, {"measurement": "Average Decay Rating", "setting": "decay fungi; [33]", "value": 0.0}, {"measurement": "Average Decay Rating", "setting": "decay fungi; [34]", "value": 0.0}, {"measurement": "Average Decay Rating", "setting": "decay fungi; [35]", "value": 0.0}, {"measurement": "Average Decay Rating", "setting": "decay fungi; [36]", "value": 0.0}, {"measurement": "Average Termite Rating", "setting": "termites; [1]", "value": 4.2}, {"measurement": "Average Termite Rating", "setting": "termites; [2]", "value": 4.2}, {"measurement": "Average Termite Rating", "setting": "termites; [3]", "value": 4.2}, {"measurement": "Average Termite Rating", "setting": "termites; [4]", "value": 4.5}, {"measurement": "Average Termite Rating", "setting": "termites; [5]", "value": 4.5}, {"measurement": "Average Termite Rating", "setting": "termites; [6]", "value": 4.5}, {"measurement": "Average Termite Rating", "setting": "termites; [7]", "value": 4.8}, {"measurement": "Average Termite Rating", "setting": "termites; [8]", "value": 4.8}, {"measurement": "Average Termite Rating", "setting": "termites; [9]", "value": 4.8}, {"measurement": "Average Termite Rating", "setting": "termites; [10]", "value": 0.6}, {"measurement": "Average Termite Rating", "setting": "termites; [11]", "value": 0.6}, {"measurement": "Average Termite Rating", "setting": "termites; [12]", "value": 0.6}, {"measurement": "Average Termite Rating", "setting": "termites; [13]", "value": 1.2}, {"measurement": "Average Termite Rating", "setting": "termites; [14]", "value": 1.2}, {"measurement": "Average Termite Rating", "setting": "termites; [15]", "value": 1.2}, {"measurement": "Average Termite Rating", "setting": "termites; [16]", "value": 2.0}, {"measurement": "Average Termite Rating", "setting": "termites; [17]", "value": 2.0}, {"measurement": "Average Termite Rating", "setting": "termites; [18]", "value": 2.0}, {"measurement": "Average Termite Rating", "setting": "termites; [19]", "value": 0.0}, {"measurement": "Average Termite Rating", "setting": "termites; [20]", "value": 0.0}, {"measurement": "Average Termite Rating", "setting": "termites; [21]", "value": 0.0}, {"measurement": "Average Termite Rating", "setting": "termites; [22]", "value": 0.0}, {"measurement": "Average Termite Rating", "setting": "termites; [23]", "value": 0.0}, {"measurement": "Average Termite Rating", "setting": "termites; [24]", "value": 0.0}, {"measurement": "Average Termite Rating", "setting": "termites; [25]", "value": 0.0}, {"measurement": "Average Termite Rating", "setting": "termites; [26]", "value": 0.0}, {"measurement": "Average Termite Rating", "setting": "termites; [27]", "value": 0.0}, {"measurement": "Average Termite Rating", "setting": "termites; [28]", "value": 0.0}, {"measurement": "Average Termite Rating", "setting": "termites; [29]", "value": 0.0}, {"measurement": "Average Termite Rating", "setting": "termites; [30]", "value": 0.0}, {"measurement": "Average Termite Rating", "setting": "termites; [31]", "value": 0.0}, {"measurement": "Average Termite Rating", "setting": "termites; [32]", "value": 0.0}, {"measurement": "Average Termite Rating", "setting": "termites; [33]", "value": 0.0}, {"measurement": "Average Termite Rating", "setting": "termites; [34]", "value": 0.0}, {"measurement": "Average Termite Rating", "setting": "termites; [35]", "value": 0.0}, {"measurement": "Average Termite Rating", "setting": "termites; [36]", "value": 0.0}]}]}
